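Following 48 hours of exposure in 96-well plates, responses at five concentrations were used to interpolate endpoints linearly. GI50 marks 50% less growth. The concentration for full growth arrest is given as TGI.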 Numbered stars: 1 amine (or outer) side, 2 acyl side, 3 side chain; on linkers, the order of the positions; unused ones are H or OH. Bridge positions count the residues as written; N and C are the ends. Square brackets hold non-standard residues; d marks the D form. Peptide text beside a SMILES is read from it. I, II: the chains in the order shown. Actinocin(1to9) = Cc1c2oc3c(C)ccc(C(=O)[*:2])c3nc-2c(C(=O)[*:1])c(N)c1=O; NMeY = CN[CH](Cc1ccc(O)cc1)C(=O)O; Sar = CNCC(=O)O
Experiments:
Assay in all cases: NCI tumour cell line growth inhibition, 48 h
DLD-1 colon = test system: DLD-1 colon
SNB-78 CNS = test system: SNB-78 CNS
M19-MEL melanoma = test system: M19-MEL melanoma
RXF-631 renal = test system: RXF-631 renal
KM20L2 colon = test system: KM20L2 colon
XF 498 CNS = test system: XF 498 CNS
DMS 114 small cell lung = test system: DMS 114 small cell lung
HOP-18 NSCLC = test system: HOP-18 NSCLC
MDA-N = test system: MDA-N
P388/ADR leukemia = test system: P388/ADR leukemia
SN12K1 renal = test system: SN12K1 renal

Compound	TGI (DLD-1 colon)	TGI (SNB-78 CNS)	TGI (M19-MEL melanoma)	TGI (RXF-631 renal)	TGI (KM20L2 colon)	TGI (XF 498 CNS)	TGI (DMS 114 small cell lung)	TGI (HOP-18 NSCLC)	TGI (MDA-N)	other results
COC(=O)N/N=C(\C)CC(=O)Nc1ccc(Cl)cc1	> 100 µM	> 100 µM	> 100 µM	> 100 µM	> 100 µM	> 100 µM	> 100 µM	–	–	–
COc1ccc([C@@H]2OC(=O)C3C2C(=O)O[C@H]3c2ccc(OC)c(OC)c2)cc1OC (stereo partly drawn)	–	> 100 µM	> 100 µM	> 100 µM	> 100 µM	> 100 µM	> 100 µM	> 100 µM	–	–
CCC[CH2][Sn]1([CH2]CCC)[S]CC[N]1S(=O)(=O)c1ccc(C)cc1	2.99 µM	–	3.03 µM	–	4.46 µM	–	2.09 µM	–	–	GI50 (DLD-1 colon): 1.58 µM; GI50 (M19-MEL melanoma): 1.32 µM; GI50 (KM20L2 colon): 2.27 µM; GI50 (DMS 114 small cell lung): 0.659 µM
C[C@@H]1CC[C@@]2(NC1)O[C@H]1C[C@H]3[C@@H]4CC[C@H]5C[C@@H](O)CC[C@]5(C)[C@H]4CC[C@]3(C)[C@H]1[C@@H]2C	–	–	–	–	–	–	–	–	> 100 µM	–
CC1=NOC(=O)/C1=C/c1ccc2c(c1)OCO2	–	–	–	–	–	–	–	–	85.7 µM	–
CC[PH+](CC)CC.[Cl][Au]	2.93 µM	5.93 µM	6.56 µM	–	8.73 µM	2.67 µM	–	3 µM	–	GI50 (DLD-1 colon): 1.28 µM; GI50 (SNB-78 CNS): 1.65 µM; GI50 (M19-MEL melanoma): 1.08 µM; GI50 (KM20L2 colon): 4.25 µM; GI50 (XF 498 CNS): 1.37 µM; GI50 (HOP-18 NSCLC): 1.64 µM
C=C1C(OC(C)=O)CC(OC(C)=O)C2(C)C(OC(C)=O)C(OC(C)=O)C3=C(C)C(OC(=O)/C=C/c4ccccc4)CC(C(OC(C)=O)C12)C3(C)C (stereo not drawn)	> 100 µM	> 100 µM	> 100 µM	> 100 µM	> 100 µM	–	> 100 µM	> 100 µM	–	–
CCOC(=O)CN1C(=O)c2cc([N+](=O)[O-])cc3cc([N+](=O)[O-])cc(c23)C1=O	> 100 µM	> 97.1 µM	> 100 µM	> 100 µM	> 100 µM	> 100 µM	> 100 µM	> 100 µM	> 100 µM	–
COCCNc1cncc(C(N)=O)c1	–	–	–	–	–	–	–	–	> 100 µM	–
O=C[C@@H](CO)O[C@H](C=O)n1cnc2c(=O)[nH]cnc21	395 µM	2170 µM	1540 µM	–	2130 µM	1690 µM	202 µM	1670 µM	1610 µM	TGI (P388/ADR leukemia): 257 µM; TGI (SN12K1 renal): 1570 µM
C=C1C[C@@H]2C[C@@H](C)CC(O)[C@]2(CCCN)C1O (stereo partly drawn)	> 100 µM	> 100 µM	> 100 µM	> 100 µM	> 100 µM	> 100 µM	> 100 µM	> 100 µM	–	–
O=C([O-])CC(=O)[O-].[NH-][C@@H]1CCCC[C@H]1[NH-].[Pt+4]	–	> 100 µM	> 100 µM	–	> 100 µM	–	–	–	> 100 µM	GI50 (SNB-78 CNS): > 100 µM; GI50 (M19-MEL melanoma): 14.3 µM; GI50 (MDA-N): 19.9 µM
CO[C@@]1(c2ccccc2)O[C@H]2OCCC2[C@H]1c1ccc(Cl)cc1 (stereo partly drawn)	> 100 µM	> 100 µM	–	> 100 µM	> 100 µM	69.3 µM	> 100 µM	99 µM	–	–
COc1ccc2c(c1)CN1CCc3c(cc(OC)c(OC)c3OC)C1C2 (stereo not drawn)	> 100 µM	> 100 µM	> 100 µM	–	> 100 µM	> 100 µM	> 100 µM	> 100 µM	–	–
COc1ccc(-c2cc(=O)c3c(O)c(OC)c(OC)c(OC)c3o2)cc1	–	–	–	–	–	–	–	–	13 µM	–
COc1cc(/C=N/N=C(\N)NO)c([N+](=O)[O-])cc1OC	> 100 µM	> 100 µM	> 100 µM	> 100 µM	> 100 µM	–	46.2 µM	> 100 µM	–	–
COC(C)C(O)(C(=O)OCC1=CCN2CCC(O)C12)C(C)(C)O (stereo not drawn)	–	–	–	–	–	–	–	–	> 100 µM	–
CC1=CCCC2C(C=O)(C1)CC(C)C2(CO)CC/C(=C/CO)CO (stereo not drawn)	> 100 µM	> 100 µM	> 100 µM	> 100 µM	–	–	> 100 µM	> 100 µM	–	–
CCC1=C(CC2NCCc3ccccc32)CC2c3cc(OC)c(OC)cc3CCN2C1 (stereo not drawn)	> 100 µM	6.77 µM	29.5 µM	4.44 µM	26.5 µM	13 µM	–	–	8.25 µM	–
CC(=O)[O-].N.N.N.N.[Co+3].[O-][Cl+3]([O-])([O-])[O-].[OH3+]	> 100 µM	> 100 µM	–	–	> 100 µM	–	–	–	–	GI50 (DLD-1 colon): > 100 µM; GI50 (SNB-78 CNS): > 100 µM; GI50 (KM20L2 colon): > 100 µM
CCOC(=O)/C=C/c1cccc(F)c1	–	–	–	–	–	–	–	–	> 100 µM	–
COc1ccc(CC2C(=O)OC(C)C(NC(=O)c3c4nc5c(C(=O)NC6C(=O)NC(C(C)C)C(=O)N7CCCC7C(=O)N(C)CC(=O)N(C)C(Cc7ccc(OC)cc7)C(=O)OC6C)ccc(C)c5oc-4c(C)c(=O)c3N)C(=O)NC(C(C)C)C(=O)N3CCCC3C(=O)N(C)CC(=O)N2C)cc1 (stereo not drawn) (I: TVP[Sar][NMeY](Me) / II: TVP[Sar][NMeY](Me); ester I:1-I:C, II:1-II:C; linker I:N-II:N via Actinocin(1to9); configuration not given here)	–	–	–	–	–	–	–	–	0.218 µM	–
COc1cc(C(=O)c2cocc2C(=O)c2ccc3c(c2)OCO3)cc(OC)c1OC	> 100 µM	–	> 100 µM	–	–	32.1 µM	> 100 µM	> 100 µM	0.311 µM	–

Source: PubChem BioAssay (NCI)
